Assay results taken from patent publication US11992498B2, “Substituted N9-adenine derivatives, pharmaceutical compositions containing same and use thereof” (priority 2018, dated 2024).

Experiments:
Type in all cases: cell-based, mouse
[1] = test system: C2C12 cells; assay: MTT cell viability/proliferation assay in C2C12 myotubes
Protocol: MTT Cell Viability/Proliferation Assay
The MTT redox assay is based on the metabolic reduction of bromide from 3-(4,5-dimethylthiazol-2-yl)-2,5-diphenyltetrazole (MTT) that is produced by the mitochondrial enzyme succinate-dehydrogenase, which colours the formazan dye blue, allowing to determine the mitochondrial functionality of the treated cells.
C2C12 cells were seeded at a density of 10,000 cells per well in a white 96-well plate compatible with the use of a luminometer. Cells were grown for 5 days in 200 μl/well of growth medium (high glucose DMEM, 10% FBS, penicillin and […]), with the medium being replaced every two days. Subsequently, the medium was replaced by a differentiation medium (low glucose DMEM, 2% NHS, penicillin and […]) and the cells were allowed to differentiate in myotubes for three days, the medium being changed every day. In all processes, cells were incubated at 37° C. and 5% CO2 in a cell incubator. The compound N9-(3-diethylphosphonyl)phenyl-adenine was incubated for 24 and 48 hours in low glucose DMEM without serum. […] After incubation, 10 μl of the MTT reagent (Abcam) was added to each well and, after 30 min, 45 min and 60 min of incubation, the absorbance at 490 nm was measured in a photometer with a Biotek TX plate reader. The reading is an indirect measure of the NAD(P)H enzyme dependent on cellular oxidase reductases. […]

[2] = test system: AMPK; assay: AMPK activation assay (ELISA ratio phosphorylated α-AMPK:total α-AMPK in C2C12 cells); conditions: concentrations as low as 30 nanomolar, 4 hours of incubation
Protocol: C2C12 cells from the mouse muscle myoblastoma cell line (from Sigma-Aldrich) were seeded at a cell density of 10,000 cells per well in a 96-well plate in 200 μl of growth medium (high glucose DMEM, 10% foetal bovine serum […], penicillin and […]). The cells were allowed to grow until confluence and on the day of the assay they were incubated with the compound of interest in 100 μl of growth medium at 37° C. and 5% CO2 in an incubator for between 1 and 24 hours. All conditions were tested in quadruplicate. The compounds were administered dissolved in sterile anhydrous dimethyl sulphoxide at different concentrations. As a positive control for AMPK activation, an adenosine monophosphate (AMP) solution with a final concentration of […] was used. After the corresponding times, the medium was removed and the cells were carefully washed three times with PBS at room temperature and the Abcam Elisa kit was used to quantify the ratio of phosphorylated α-AMPK:total α-AMPK. The manufacturer's instructions were followed and the signal was quantified using a Licor Odissey® scanner.
The compounds selected as AMPK activators according to the criteria described above are used in glucose consumption tests and MTT cell viability tests.

[3] = test system: C2C12 cells; assay: Glucose consumption test (2-deoxyglucose uptake, luminometric) in C2C12 myotubes; conditions: one hour incubation
Protocol: C2C12 cells of the mouse muscle myoblastoma cell line (from Sigma-Aldrich) were seeded at a cell density of 10,000 cells per well in a white 96-well plate compatible with the use of a luminometer. Cells were grown for 5 days in 200 μl/well of growth medium (high glucose DMEM, 10% foetal bovine serum […], penicillin and […]) in an incubator at 37° C. and 5% CO2. The medium was changed every two days. The medium was then replaced with a differentiation medium (low glucose DMEM, 2% […], penicillin and […]), allowing the cells to differentiate into myotubes for three days. The medium was changed every day. One day prior to testing, cells were serum starved (low glucose DMEM, penicillin and […]). The medium was then replaced by a DMEM medium without glucose and the compound N9-(3-diethylphosphonyl)phenyl-adenine was incubated for one hour at different concentrations, replicating the conditions in quadruplicate. The positive control consisted of 100 nanomolar human insulin solution (from Sigma). A Promega glucose consumption kit was used following the manufacturer's instructions. […]
Total luminescence was measured on a Biotek MX luminometric plate reader. […]

N9-(3-diethylphosphonyl)phenyl-adenine
Luminosity as % of the control (MTT) ([1]; 30 nanomolar, 48 hours incubation): 157±5% | MTT signal compared to controls ([1]; nanomolar concentrations): significantly higher signal compared to controls | AMPK activity as % of that obtained with the AMP positive control [2]: greater than 500% | AMPK activity compared with the AMP positive control [2]: higher AMPK activity than the AMP positive control | Luminosity as % of the control (glucose consumption) ([3]; 30 nanomolar, C2C12 myotubes): 125±9% | glucose consumption activity compared with insulin controls ([3]; concentrations as low as 30 nanomolar, control 100 nanomolar human insulin): analogous to or greater than that of insulin controls
